Measurements as given in patent US7229993B2, “Aryl substituted pyrimidines and the use thereof” (Euro-Celtique S.A., priority 2002, dated 2007).

target: rBIIa/beta 1 sodium channels expressed in Xenopus oocytes (Rattus norvegicus, UniProt P04775); experiment: Electrophysiological assay (two-electrode voltage clamp), sodium channel inhibition, inactivated state; type: cell-based; conditions: apparent Ki from single point inhibition data; rat brain type IIa/beta 1 channels in Xenopus oocytes; test pulse after 4 second depolarization from -120 mV holding potential; read-out: Ki (inhibition constant for sodium channel inhibition)
Protocol: An electrophysiological assay was used to measure potencies of compounds of the present invention rBIIa/beta 1 sodium channels expressed in Xenopus oocytes.
Preparation of cRNA encoding cloned rat brain type IIa (rBIIa) and beta 1 (β1): cDNA clones encoding the rat brain beta 1 subunit are cloned in house using standard methods, and mRNA are prepared by standard methods. mRNA encoding rBIIa is provided by Dr. A. Golden (UC Irvine). The mRNAs are diluted and stored at −80° C. in 1 μL aliquots until injection.
Preparation of oocytes: Mature female Xenopus laevis are anaesthetized (20–40 min) using 0.15% 3-aminobenzoic acid ethyl ester (MS-222) following established procedures (Woodward, R. M., et al., Mol. Pharmacol. 41:89–103 (1992)).
Two to six ovarian lobes are surgically removed. Oocytes at developmental stages V–VI are dissected from the ovary, wherein the oocytes are still surrounded by enveloping ovarian tissues. Oocytes are defolliculated on the day of surgery by treatment with collagenase (0.5 mg/mL Sigma Type I, or Boehringer Mannheim Type A, for 0.5–1 hr). Treated oocytes are vortexed to dislodge epithelia, washed repeatedly and stored in Barth's medium containing 88 mM NaCl, 1 mM KCl, 0.41 mM CaCl2, 0.33 mM Ca(NO3)2, 0.82 mM MgSO4, 2.4 mM NaHCO3, 5 mM HEPES, pH 7.4 adjusted with 0.1 mg/mL gentamycin sulphate.
Micro-injection of oocytes: Defolliculated oocytes are micro-injected using a Nanoject injection system (Drummond Scientific Co., Broomall, Pa.). Injection pipettes are beveled to minimize clogging. Tip diameter of injection pipettes is 15–35 μm. Oocytes are microinjected with approximately 50 nL 1:10 ratio mixtures of cRNAs for rBIIa and beta 1 respectively.
Electrophysiology: Membrane current responses are recorded in frog Ringer solution containing 115 mM NaCl, 2 mM KCl, 1.8 mM CaCl2, 5 mM HEPES, pH 7.4. Electrical recordings are made using a conventional two-electrode voltage clamp (Dagan TEV-200) over periods ranging between 1–7 days following injection. The recording chamber is a simple gravity fed flow-through chamber (volume […] depending on adjustment of aspirator). Oocytes are placed in the recording chamber, impaled with electrodes and continuously perfused (5–15 mL min^−1) with frog Ringer's solution. […]
Voltage protocols for evoking sodium channel currents: The standard holding potential for whole oocyte clamp is −120 mV. […] Peak currents are measured as the maximum negative current after depolarizing voltage steps. […]
The purpose is to find compounds that are state dependent modifiers of neuronal sodium channels. […] Sodium currents are measured at this test pulse before and after the application of the tested compound. Data is acquired using PCLAMP 8.0 software and analyzed with CLAMPFIT software (Axon instruments). […]

rBIIa/beta 1 sodium channels expressed in Xenopus oocytes, sequence (P04775 whole entry): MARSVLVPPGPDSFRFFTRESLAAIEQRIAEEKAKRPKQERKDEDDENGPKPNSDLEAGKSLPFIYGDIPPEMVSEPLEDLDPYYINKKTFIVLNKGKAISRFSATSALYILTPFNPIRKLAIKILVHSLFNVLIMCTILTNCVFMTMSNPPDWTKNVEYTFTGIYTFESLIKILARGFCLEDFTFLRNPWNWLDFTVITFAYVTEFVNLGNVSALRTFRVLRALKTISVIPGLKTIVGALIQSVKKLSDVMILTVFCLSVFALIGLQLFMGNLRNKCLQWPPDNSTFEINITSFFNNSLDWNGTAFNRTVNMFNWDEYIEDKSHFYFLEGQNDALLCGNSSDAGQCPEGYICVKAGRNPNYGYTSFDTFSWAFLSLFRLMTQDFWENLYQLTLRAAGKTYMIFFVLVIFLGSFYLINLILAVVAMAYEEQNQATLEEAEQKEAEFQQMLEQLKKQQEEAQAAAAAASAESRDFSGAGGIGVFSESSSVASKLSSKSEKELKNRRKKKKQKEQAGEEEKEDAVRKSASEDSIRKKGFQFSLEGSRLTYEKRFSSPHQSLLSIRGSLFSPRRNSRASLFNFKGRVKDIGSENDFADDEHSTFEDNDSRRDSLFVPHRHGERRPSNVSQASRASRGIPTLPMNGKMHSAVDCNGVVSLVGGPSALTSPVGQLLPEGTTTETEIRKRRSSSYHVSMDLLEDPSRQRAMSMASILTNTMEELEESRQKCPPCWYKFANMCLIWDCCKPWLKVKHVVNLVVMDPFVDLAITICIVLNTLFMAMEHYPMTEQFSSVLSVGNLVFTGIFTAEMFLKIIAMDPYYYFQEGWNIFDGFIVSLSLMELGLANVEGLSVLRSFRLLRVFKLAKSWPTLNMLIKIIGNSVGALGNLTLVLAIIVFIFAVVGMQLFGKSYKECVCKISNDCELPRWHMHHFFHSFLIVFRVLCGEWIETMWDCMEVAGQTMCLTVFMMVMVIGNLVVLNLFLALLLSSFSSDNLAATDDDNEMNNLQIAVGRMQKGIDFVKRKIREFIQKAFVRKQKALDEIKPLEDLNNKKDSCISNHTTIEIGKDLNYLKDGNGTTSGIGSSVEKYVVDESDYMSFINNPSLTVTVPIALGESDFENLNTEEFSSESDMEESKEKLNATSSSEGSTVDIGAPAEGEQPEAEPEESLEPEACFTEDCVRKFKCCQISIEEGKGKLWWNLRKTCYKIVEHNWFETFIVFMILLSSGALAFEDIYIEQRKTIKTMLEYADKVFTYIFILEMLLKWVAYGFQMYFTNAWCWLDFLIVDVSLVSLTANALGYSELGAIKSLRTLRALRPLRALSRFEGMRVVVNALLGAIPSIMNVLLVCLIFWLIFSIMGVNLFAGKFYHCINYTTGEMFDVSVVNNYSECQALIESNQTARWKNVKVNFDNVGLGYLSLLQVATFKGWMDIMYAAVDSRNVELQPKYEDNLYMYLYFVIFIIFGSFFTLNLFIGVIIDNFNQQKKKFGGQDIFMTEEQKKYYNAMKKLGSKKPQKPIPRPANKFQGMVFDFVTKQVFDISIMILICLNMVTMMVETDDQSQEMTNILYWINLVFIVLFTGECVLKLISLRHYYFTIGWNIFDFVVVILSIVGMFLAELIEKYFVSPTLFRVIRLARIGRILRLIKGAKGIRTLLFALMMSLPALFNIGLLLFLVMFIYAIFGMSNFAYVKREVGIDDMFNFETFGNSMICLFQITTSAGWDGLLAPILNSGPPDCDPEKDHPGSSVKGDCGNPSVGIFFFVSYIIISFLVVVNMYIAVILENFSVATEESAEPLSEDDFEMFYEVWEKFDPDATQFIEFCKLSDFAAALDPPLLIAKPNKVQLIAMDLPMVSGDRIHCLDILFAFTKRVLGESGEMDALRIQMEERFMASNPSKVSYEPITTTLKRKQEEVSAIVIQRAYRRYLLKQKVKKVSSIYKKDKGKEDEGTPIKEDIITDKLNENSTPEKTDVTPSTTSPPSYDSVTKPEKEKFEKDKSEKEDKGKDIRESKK
rBIIa/beta 1 sodium channels expressed in Xenopus oocytes, sequence (Q00954 19-218 partner): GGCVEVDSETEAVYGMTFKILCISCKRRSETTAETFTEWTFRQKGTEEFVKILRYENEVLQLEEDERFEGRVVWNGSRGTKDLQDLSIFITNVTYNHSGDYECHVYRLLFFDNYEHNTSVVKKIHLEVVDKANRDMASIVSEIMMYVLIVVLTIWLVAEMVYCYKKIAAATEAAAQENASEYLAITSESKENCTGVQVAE

| Compound | Ki [µM] |
| --- | --- |
| 2-(4-(4-fluorophenoxy)phenyl)-4-tert-butyl-6-aminopyrimidin-4-one | 15.6 |
| Nc1nc(-c2ccc(Oc3ccc(F)cc3)cc2)[nH]c(=O)c1Cc1ccccc1Cl [2-(4-(4-fluorophenoxy)phenyl)-6-amino-5-(2-chlorobenzyl)pyrimidin-4-one] | 30.9 |
| Nc1cc(=O)[nH]c(-c2ccc(Oc3ccc(F)cc3)cc2)n1 [2-(4-(4-fluorophenoxy)phenyl)-6-amino-pyrimidin-4-one] | 0.47 |
| Nc1nc(-c2ccccc2)[nH]c(=O)c1Cc1ccccc1Cl [2-phenyl-6-amino-5-(2-chlorobenzyl)pyrimidin-4-one] | 49.2 |
